Laboratory results as given in patent US20140023611A1 (priority 2010, published 2014).

Key:
[1] = Determination of compound Cmax and AUC after oral gavage (plasma LC-MS/MS); type: in vivo, Sprague-Dawley rats; details: Sprague-Dawley, rat, plasma, po
Experimental: (§1) Sprague-Dawley rats were orally gavaged with test article at a nominal dose of 2.5 or 10 mg/kg and blood was collected at 0.5, 1, 2 and 4 h. Blood samples were processed to plasma using K2EDTA as an anticoaglulant. Plasma samples were treated with acetonitrile containing an internal standard, precipitated proteins removed by centrifugation. Supernatants were analyzed by LC-MS/MS and compound concentrations were determined by interpolation from a standard curve prepared in plasma. All compounds were orally dosed at the dosage shown, and pharmacokinetic parameters determined.
as §1, with “interpolated” for “interpolation”
as §1, with “interpolated” for “interpolation”

rat NaP2b (SLC34A2) = target: T1, rat NaP2b (SLC34A2) (Rattus norvegicus, UniProt Q9JJ09); experiment: Inhibition of NaP2b-mediated Pi (33P) uptake in transfected HEK293 cells, rat NaP2b; type: cell-based; details: 33P Pi uptake, 0.1 mM phosphate, value given as pIC50 range
T1 construct: host or cells: HEK293
T1 sequence (Q9JJ09 1-695): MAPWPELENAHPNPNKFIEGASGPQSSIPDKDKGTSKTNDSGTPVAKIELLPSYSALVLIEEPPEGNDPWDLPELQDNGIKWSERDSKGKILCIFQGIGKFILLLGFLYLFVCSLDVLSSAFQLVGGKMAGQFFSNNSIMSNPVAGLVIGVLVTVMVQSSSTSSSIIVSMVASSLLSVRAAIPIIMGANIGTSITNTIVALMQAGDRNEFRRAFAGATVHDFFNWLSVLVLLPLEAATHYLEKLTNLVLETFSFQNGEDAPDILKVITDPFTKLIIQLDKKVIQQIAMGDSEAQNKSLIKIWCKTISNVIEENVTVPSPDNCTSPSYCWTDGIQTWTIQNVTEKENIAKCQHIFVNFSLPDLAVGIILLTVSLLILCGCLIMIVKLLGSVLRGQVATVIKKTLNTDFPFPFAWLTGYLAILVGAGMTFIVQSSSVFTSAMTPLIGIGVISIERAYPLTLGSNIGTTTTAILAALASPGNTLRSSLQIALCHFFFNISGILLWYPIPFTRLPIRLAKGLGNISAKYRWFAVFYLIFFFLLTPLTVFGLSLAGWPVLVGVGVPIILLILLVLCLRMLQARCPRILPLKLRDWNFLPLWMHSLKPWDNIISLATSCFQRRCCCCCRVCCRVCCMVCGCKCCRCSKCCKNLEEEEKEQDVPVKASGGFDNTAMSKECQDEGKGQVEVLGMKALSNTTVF
In short: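 The cells transiently expressed NaP2b after Lipofectamine transfection. Each compound was run in duplicate over twelve concentrations, 0.1 nM–30 uM.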

[2] = Structure (I) examples, Table 15, actual oral dose 3-15 mg/kg, plasma 0.5-4 h
[3] = Structure (II) examples, Table 6, actual oral dose 7.6-11 mg/kg
[4] = Structure (III) examples, Table 6, actual oral dose 8.9-10 mg/kg

Compound	AUC [1, 2] [µg·h/mL]	Cmax [1, 2] [ng/mL]	IC50 (rat NaP2b (SLC34A2)) [µM]	other results
O=C(O)CCSCc1cccc(C(=O)Nc2ccc(N3CCCCC3)cc2C(=O)Nc2ccn(-c3cccc(C(F)(F)F)c3)n2)c1 [Example 7]				AUC [1, 3]: 0.467 µg·h/mL; Cmax [1, 3]: 393 ng/mL
CN(CCN1CCOCC1)C(=O)c1cccc(C(=O)Nc2ccc(N3CCCCC3)cc2C(=O)Nc2ccn(-c3cccc(C(F)(F)F)c3)n2)c1 [Example 11]				AUC [1, 3]: 0.0098 µg·h/mL; Cmax [1, 3]: 5 ng/mL
CN(CCN1CCOCC1)C(=O)c1cccc(C(=O)Nc2ccc(N3CCCCC3)cc2C(=O)Nc2cnc(-c3ccccc3)nc2)c1 [Example 11]				AUC [1, 4]: 0.14 µg·h/mL; Cmax [1, 4]: 70 ng/mL
CN(CCOCCOCCOCCC(=O)O)C(=O)c1cccc(C(=O)Nc2ccc(N3CCCCC3)cc2C(=O)Nc2ccn(-c3cccc(C(F)(F)F)c3)n2)c1 [Example 15]				AUC [1, 3]: 0.011 µg·h/mL; Cmax [1, 3]: 10 ng/mL
CN(CCN1CCOCC1)C(=O)c1cccc(C(=O)Nc2ccc(OC3CCC3)cc2-c2cc(C(=O)NCc3cccc(C(F)(F)F)c3)ccn2)c1 [Example 26]	< 0.03	< 30		
O=C(O)CCOCCOCCOCCNC(=O)Cc1cccc(SCc2cccc(C(=O)Nc3ccc(N4CCCCC4)cc3C(=O)Nc3ccn(-c4cccc(C(F)(F)F)c4)n3)c2)c1 [Example 26]				Cmax [1, 3]: 3 ng/mL
O=C(O)CCCNC(=O)Cc1cccc(SCc2cccc(C(=O)Nc3ccc(N4CCCCC4)cc3-c3cc(C(=O)NCc4cccc(C(F)(F)F)c4)ccn3)c2)c1 [Example 141]	> 0.05	> 50	1 to 7.94	
COCCOCCOCCOCCOCCOCCOCCOCCNC(=O)[C@@H]1CCCN1CCN(C)C(=O)c1cccc(C(=O)Nc2ccc(N3CCCCC3)cc2-c2cc(C(=O)N[C@H]3CCCc4ccccc43)ccn2)c1 [Example 195, N^1-(2-((S)-2-(2,5,8,11,14,17,20,23-octaoxapentacosan-25-ylcarbamoyl)pyrrolidin-1-yl)ethyl)-N-methyl-N^3-(4-(piperidin-1-v)-2-(4-(((S)-1,2,3,4-tetrahydronaphthalen-1-yl)carbamoyl)pyridin-2-yl)phenyl)isophthalamide]	< 0.01	< 10	1 to 7.94	
CN(C)C(=O)C1CCN(CCN(C)C(=O)c2cccc(C(=O)Nc3ccc(N4CCCCC4)cc3-c3cc(C(=O)N[C@H]4CCCc5ccccc54)ccn3)c2)CC1 [Example 218, (S)—N1-(2-(4-(dimethylcarbamoyl)piperidin-1-yl)ethyl)-N1-methyl-N3-(4-(piperidin-1-yl)-2-(4-(1,2,3,4-tetrahydronaphthalen-1-ylcarbamoyl)pyridin-2-yl)phenyl)isophthalamide]	< 0.03	< 10	1 to 7.94	
CCN(CC)c1ccc(NC(=O)c2cccc(C(=O)N(C)CCN(C)CCOCCOCCOCCNC(=O)C3CCOCC3)c2)c(-c2cc(C(=O)N[C@H]3CCCc4ccccc43)ccn2)c1 [Example 343, (S)—N^1-(4-(Diethylamino)-2-(4-(1,2,3,4-tetrahydronaphthalen-1-ylcarbamoyl)pyridin-2-yl)phenyl)-N^3-methyl-N^3-(14-methyl-1-oxo-1-(tetrahydro-2H-pyran-4-yl)-5,8,11-trioxa-2,14-diazahexadecan-16-yl)isophthalamide]			1 to 7.94	
CCN(CC)c1ccc(NC(=O)c2cccc(C(=O)N(C)CCN(C)CCOCCOCCOCCNC(=O)c3cscn3)c2)c(-c2cc(C(=O)N[C@H]3CCCc4ccccc43)ccn2)c1 [Example 344, (S)—N-(4-(Diethylamino)-2-(4-(1,2,3,4-tetrahydronaphthalen-1-ylcarbamoyl)pyridin-2-yl)phenyl)-N^3-methyl-N^3-(14-methyl-1-oxo-1-(thiazol-4-yl)-5,8,11-trioxa-2,14-diazahexadecan-16-yl)isophthalamide]			< 1	
CCN(CC)c1ccc(NC(=O)c2cccc(C(=O)N(C)CCN(C)CCOCCOCCOCCNC(=O)c3ccc(O)cc3)c2)c(-c2cc(C(=O)N[C@H]3CCCc4ccccc43)ccn2)c1 [Example 345, (S)—N^1-(4-(Diethylamino)-2-(4-(1,2,3,4-tetrahydronaphthalen-1-ylcarbamoyl)pyridin-2-yl)phenyl)-N^3-(1-(4-hydroxyphenyl)-14-methyl-1-oxo-5,8,11-trioxa-2,14-diazahexadecan-16-yl)-N^3-methylisophthalamide]			1 to 7.94	
CCN(CC)c1ccc(NC(=O)c2cccc(C(=O)N(C)CCN(C)CCOCCOCCOCCNC(=O)C(C)(C)C)c2)c(-c2cc(C(=O)NCc3cccc(C(F)(F)F)c3)ccn2)c1 [Example 346, N2-(4-(diethylamino)-2-(4-(3-(trifluoromethyl)benzylcarbamoyl)pyridin-2-yl)phenyl)-N^3-methyl-N^3-(3,17,17-trimethyl-16-oxo-6,9,12-trioxa-3,15-diazaoctadecyl)isophthalamide]				pIC50 range for rat Nap2b (rat NaP2b (SLC34A2)): 5.1-6.0
O=C(O)CCOCCOCCOCCOCCCc1cccc(C(=O)Nc2ccc(OC3CCCC3)cc2-c2cc(C(=O)N[C@H]3CCCc4ccccc43)ccn2)c1 [Example 347, (S)-16-(3-(4-(cyclopentyloxy)-2-(4-(1,2,3,4-tetrahydronaphthalen-1-ylcarbamoyl)pyridin-2-yl)phenylcarbamoyl)phenyl)-4,7,10,13-tetraoxahexadecan-1-oic acid]			< 1	

Now from value to molecule, other results behind:

AUC [1, 2] [µg·h/mL]	Cmax [1, 2] [ng/mL]	IC50 (rat NaP2b (SLC34A2)) [µM]	Compound	other results
> 0.05	< 50		O=C(O)CCSCc1cccc(C(=O)Nc2ccc(N3CCCCC3)cc2-c2cc(C(=O)NCc3cccc(C(F)(F)F)c3)ccn2)c1 [Example 1.1, 3-(3-((2-(4-((3-(Trifluoromethyl)benzyl)carbamoyl)pyridin-2-yl)-4-(piperidin-1-yl)phenyl)carbamoyl)benzylthio)propanoic acid]	
< 0.03	< 10	1 to 7.94	COCCN(C)C(=O)N1CCN(CCN(C)C(=O)c2cccc(C(=O)Nc3ccc(N4CCCCC4)cc3-c3cc(C(=O)NCc4cccc(C(F)(F)F)c4)ccn3)c2)CC1 [Example 211, N1-(2-(4-((2-methoxyethyl)(methyl)carbamoyl)piperazin-1-yl)ethyl)-N1-methyl-N3-(4-(piperidin-1-yl)-2-(4-(3-(trifluoromethyl)benzylcarbamoyl)pyridin-2-yl)phenyl)isophthalamide]	
< 0.03	< 10	1 to 7.94	CN(CCOCCOCCOCCC(=O)O)C(=O)c1cccc(C(=O)Nc2ccc(N3CCCCC3)cc2-c2cc(C(=O)N[C@H]3CCCc4ccccc43)ccn2)c1 [Example 249, 3-[2-(2-{2-[N-methyl-1-(3-{[4-(piperidin-1-yl)-2-(4-{[(1S)-1,2,3,4-tetrahydronaphthalen-1-yl]carbamoyl}pyridin-2-yl)phenyl]carbamoyl}phenyl)formamido]ethoxy}ethoxy)ethoxy]propanoic acid]	
